system: TEAD-YAP/TAZ interaction; assay: CTGF ELISA assay; assay type: cell-based, human; details: CTGF in culture supernatant of NCI-H2052 cells, 24 hours with compound
Outline: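 NCI-H2052 cells treated 24 h at 37 °C with compound (10000–0.61 nM, 0.5% DMSO); secreted CTGF in supernatant measured by sandwich ELISA (OD 450 nm) against a standard curve. EC50 fitted from CTGF concentration-response curves.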

EC50	SMILES
42 nM	C=CC(=O)NC1CCC(n2nc(-c3ccc(C(F)(F)F)cc3)c3ccccc32)C1 (centres unmarked) [Compound 37, N-(3-(3-(4-(trifluoromethyl)phen-yl)-1H-indazol-1-yl)cyclopentyl)-acrylamide]
21 nM	C=CC(=O)N1CCC(n2nc(-c3ccc(C(F)(F)F)cc3)c3cccc(C(=O)OC)c32)C1 (centres unmarked) [Compound 78, methyl 1-(1-acryloylpyrrolidin-3-yl)-3-(4-(trifluoromethyl)phenyl)-1H-indazole-7-carboxylate]
20 nM	C=CC(=O)N1CCC(n2nc(-c3ccc(C(F)(F)F)cc3)c3cccc(OC)c32)C1 (centres unmarked) [Compound 44, 1-(3-(7-methoxy-3-(4-(trifluoro-methyl)phenyl)-1H-indazol-1-yl)-pyrrolidin-1-yl)prop-2-en-1-one]
> 10000 nM	CCOC(=O)N1CC(n2nc(-c3ccc(OC(F)(F)F)cc3)c3cccnc32)C1 [Com. EX.5, ethyl 3-(3-(4-(trifluoromethoxy)phenyl)-1H-pyrazolo[3,4-b]pyridin-1-yl)azetidine-1-carboxylate, reference compound]
84 nM	C=CC(=O)N1CCC(n2nc(-c3ccc(C(F)(F)F)cc3)c3cccc(C(=O)NC4CCC(F)(F)CC4)c32)C1 (centres unmarked) [Compound 111, 1-(1-acryloylpyrrolidin-3-yl)-N-(4,4-difluorocyclohexyl)-3-(4-(trifluoromethyl)phenyl)-1H-indazole-7-carboxamide]
23 nM	C=CC(=O)N1CCC(n2nc(-c3ccc(C(F)(F)F)cc3)c3ccc(F)cc32)C1 (centres unmarked) [Compound 50, 1-(3-(6-fluoro-3-(4-(trifluoro-methyl)phenyl)-1H-indazol-1-yl)-pyrrolidin-1-yl)prop-2-en-1-one]
12 nM	C=CC(=O)N1CCC(n2nc(-c3ccc(C(F)(F)F)cc3)c3cc(OC)cnc32)C1 (centres unmarked) [Compound 94, 1-(3-(5-methoxy-3-(4-(trifluoro-methyl)phenyl)-1H-pyrazolo[3,4-b]pyridin-1-yl)pyrrolidin-1-yl)-prop-2-en-1-one]
11 nM	C=CC(=O)N1CCN(C(=O)c2nn(-c3ccc(C(F)(F)F)cc3)c3ccccc23)CC1 [Compound 43, 1-(4-(1-(4-(trifluoromethyl)phen-yl)-1H-indazole-3-carbonyl)-piperazin-1-yl)prop-2-en-1-one]
9.8 nM	C=C(F)C(=O)N1CC(n2c(=O)n(-c3ccc(C(F)(F)F)cc3)c3ccc(Cl)nc32)C1 [Compound 252, 5-chloro-3-(1-(2-fluoroacryloyl)azetidin-3-yl)-1-(4-(trifluoromethyl)phenyl)-1,3-dihydro-2H-imidazo[4,5-b]pyridin-2-one]
> 10000 nM	C=C(F)C(=O)NCC(C=O)n1nc(-c2ccc(C(F)(F)F)cc2)c2cccnc21 (centres unmarked) [Com. EX.1, 2-fluoro-N-(3-oxo-2-(3-(4-(trifluoromethyl)phenyl)-1H-pyrazolo[3,4-b]pyridin-1-yl)propyl)acrylamide, reference compound]
2 nM	C=C(F)C(=O)N1CC(n2nc(-c3ccc(C(F)(F)F)cc3)c3ccc(Cl)nc32)C1 [Compound 187, 1-(3-(6-chloro-3-(4-(trifluoro-methyl)phenyl)-1H-pyrazolo[3,4-b]pyridin-1-yl)azetidin-1-yl)-2-fluoroprop-2-en-1-one]
> 10000 nM	C=C(F)C(=O)N1CC(n2c(=O)n(-c3ccc(Oc4ccccc4)cc3)c3cnccc32)C1 [Com. EX.4, 1-(1-(2-fluoroacryloyl)azetidin-3-yl)-3-(4-phenoxyphenyl)-1,3-dihydro-2H-imidazo[4,5-c]pyridin-2-one, reference compound]
18 nM	C=CC(=O)N1CC(n2nc(-c3ccc(C(F)(F)F)nc3)c3ncccc32)C1 [Compound 131, 1-(3-(3-(6-(trifluoromethyl)pyr-idin-3-yl)-1H-pyrazolo[4,3-b]-pyridin-1-yl)azetidin-1-yl)prop-2-en-1-one]

More lines, now with the values behind:

SMILES	EC50
C=CC(=O)N1CCC(n2nc(-c3ccc(C(F)(F)F)cc3)c3cccc(F)c32)C1 (centres unmarked) [Compound 70, 1-(3-(7-fluoro-3-(4-(trifluoro-methyl)phenyl)-1H-indazol-1-yl)-pyrrolidin-1-yl)prop-2-en-1-one]	34 nM
C=CC(=O)N1CC(n2c(=N)n(-c3ccc(C(F)(F)F)cc3)c3ccccc32)C1 [Compound 231, 1-(3-(2-imino-3-(4-(trifluoromethyl)phenyl)-2,3-dihydro-1H-benzo[d]imidazol-1 yl)azetidin-1 yl)prop-2-en-1-one]	360 nM
C=C(F)C(=O)N1CC(n2nc(-c3ccc(C(F)(F)F)cc3)c3cccnc32)C1C (centres unmarked) [Compound 9, 2 fluoro-1-(2-methyl-3-(3-(4-(trifluoromethyl)phenyl)-1H-pyrazolo[3,4-b]pyridin-1 yl)azetidin-1 yl)prop-2-en-1-one]	1.4 nM
C=C(F)C(=O)N1CC(n2nc(-c3ccc(C(F)(F)F)cc3)c3cc(F)cnc32)C1 [Compound 202, 2-fluoro-1-(3-(5-fluoro-3-(4-(trifluoromethyl)phenyl)-1H-pyrazolo[3,4-b]pyridin-1-yl)-azetidin-1-yl)prop-2-en-1-one]	8.1 nM
C=C(F)C(=O)N1CC(Nc2nc(-c3ccc(C(F)(F)F)cc3)nc3ccccc23)C1 [Compound 255, 2 fluoro-1-(3-((2-(4-(trifluoromethyl)phenyl)quinazolin-4 yl)amino)azetidin-1 yl)prop-2-en-1-one]	44 nM
C=CC(=O)N1CC(n2nc(-c3ccc(C(F)(F)F)cc3)c3cccc(NC(C)=O)c32)C1 [Compound 15, N-(1-(1-acryloylazetidin-3 yl)-3-(4-(trifluoromethyl)phenyl)-1H-indazol-7-yl)acetamide]	35 nM
C=CC(=O)N1CC(n2nc(-c3ccc(C(F)(F)F)cc3F)c3cccnc32)C1 [Compound 127, 1-(3-(3-(2-fluoro-4-(trifluoro-methyl)phenyl)-1H-pyrazolo[3,4-b]pyridin-1-yl)azetidin-1-yl)prop-2-en-1-one]	8 nM
C=C(F)C(=O)N1CC(n2nc(-c3ccc(C(F)(F)F)cc3)c3ccccc32)C1 [Compound 196, 2-fluoro-1-(3-(3-(4-(trifluoro-methyl)phenyl)-1H-indazol-1-yl)azetidin-1-yl)prop-2-en-1-one]	9 nM
C=CC(=O)N1CCC(n2nc(-c3ccc(C(F)(F)F)cc3)c3nc[nH]c(=O)c32)C1 (centres unmarked) [Compound 2, 1-(1-acryloylpyrrolidin-3-yl)-3-(4-(trifluoromethyl)phenyl)-1,6-dihydro-7H-pyrazolo[4,3-d]pyrimidin-7-one]	25 nM
C=CC(=O)N1CC(n2nc(-c3ccc(C(F)(F)F)cc3)c3nccnc32)C1 [Compound 161, 1-(3-(3-(4-(trifluoromethyl)phen-yl)-1H-pyrazolo[3,4-b]pyrazin-1-yl)azetidin-1-yl)prop-2-en-1-one]	3 nM
C=C(F)C(=O)N1CC(n2nc(-c3ccc(C(F)(F)F)nc3)c3ccccc32)C1 [Compound 197, 2-fluoro-1-(3-(3-(6-(trifluoro-methyl)pyridin-3-yl)-1H-indazol-1-yl)azetidin-1-yl)prop-2-en-1-one]	12.6 nM
C=C(F)C(=O)N1CC(n2nc(-c3ccc(C(C)C)cc3)c3cccnc32)C1 [Compound 171, 2-fluoro-1-(3-(3-(4-isopropyl-phenyl)-1H-pyrazolo[3,4-b]-pyridin-1-yl)azetidin-1-yl)prop-2-en-1-one]	148 nM
C=C(F)C(=O)N1CCC(n2nc(-c3ccc(C(F)(F)F)cc3)c3ncn(C)c(=O)c32)C1 (centres unmarked) [Compound 77, 1-(1-(2-fluoroacryloyl)pyrrolidin-3-yl)-6-methyl-3-(4-(trifluoro-methyl)phenyl)-1,6-dihydro-7H-pyrazolo[4,3-d]pyrimidin-7-one]	6 nM
C=CC(=O)N1CC(n2nc(-c3ccc(C(F)(F)F)cc3)c3ccc(N(C)C)nc32)C1 [Compound 121, 1-(3-(6-(dimethylamino)-3-(4-(trifluoromethyl)phenyl)-1H-pyrazolo[3,4-b]pyridin-1-yl)-azetidin-1-yl)prop-2-en-1-one]	3 nM
C=CC(=O)N1CC(n2nc(-c3ccc(C(F)(F)F)cc3)c3ncn(C)c(=O)c32)C1 [Compound 79, 1-(1-acryloylazetidin-3-yl)-6-methyl-3-(4-(trifluoromethyl)-phenyl)-1,6-dihydro-7H-pyrazolo[4,3-d]pyrimidin-7-one]	7.2 nM
C=CC(=O)N1CCC(n2nc(-c3ccc(C(F)(F)F)cc3)c3cccc(C(=O)N(C)C)c32)C1 (centres unmarked) [Compound 103, 1-(1-acryloylpyrrolidin-3-yl)-N,N-dimethyl-3-(4-(trifluoromethyl)-phenyl)-1H-indazole-7-carbox-amide]	158 nM
C=C(F)C(=O)N1CC(n2nc(-c3ccc(C(F)(F)F)cc3)c3c2CCCC3)C1 [Compound 217, 2-fluoro-1-(3-(3-(4-(trifluoro-methyl)phenyl)-4,5,6,7-tetra-hydro-1H-indazol-1-yl)azetidin-1-yl)prop-2-en-1-one]	5.7 nM
C=C(F)C(=O)N1CCC(n2nc(-c3ccc(C(F)(F)F)cc3)c3cc(OC)cnc32)C1 (centres unmarked) [Compound 95, 2-fluoro-1-(3-(5-methoxy-3-(4-(trifluoromethyl)phenyl)-1H-pyrazolo[3,4-b]pyridin-1-yl)-pyrrolidin-1-yl)prop-2-en-1-one]	30 nM
C=CC(=O)N1CC(n2nc(-c3ccc(C(F)(F)F)cc3F)c3ncccc32)C1 [Compound 129, 1-(3-(3-(2-fluoro-4-(trifluoro-methyl)phenyl)-1H-pyrazolo[4,3-b]pyridin-1-yl)azetidin-1-yl)prop-2-en-1-one]	8 nM

From patent US20230391779A1, “BICYCLIC COMPOUNDS, COMPOSITIONS AND USE THEREOF” (Betta Pharmaceuticals Co., Ltd., priority 2020, published 2023)
